Earlier results, collected in patent publication US20100234277A1, “COADMINISTRATION OF ALPHA-FETOPROTEIN AND A DISEASE MODIFYING ANTI-RHEUMATIC DRUG FOR TREATING INFLAMMATORY ARTHRITIC DISEASE” (priority 2006, published 2010).

Settings: in vivo

For `CN(Cc1cnc2nc(N)nc(N)c2n1)c1ccc(C(=O)N[C@@H](CCC(=O)O)C(=O)O)cc1` [methotrexate, N-[4-[[(2,4-diamino-6-pteridinyl)methyl]methylamino]benzoyl]-L-glutamic acid], the “individuals with rheumatoid arthritis (RA) that respond favorably to treatment” value is listed as “Approximately 70%”.
